Data set [1] relates to Burkholderia spp. (B. cepacia complex). Nature of the data set: MIC against CF isolates (Example 5). Type of data set: cell-based. The following applies: Table 4A; strain AU197, B. cenocepacia (B cepacia complex).
The subject of data set [2] is M. abscessus / MABSC biofilms. The class given is cell-based, Mycobacterium abscessus complex. To be noted: AMT0130-8, MABSC CF-isolate.
For data set [3], the system named is Pseudomonas aeruginosa. Nature of the data set: Broth microdilution MIC (Example 11). Type of data set: cell-based. To be noted: P. aeruginosa MMX 103 (ATCC 27853); QC.
Data set [4] relates to Acinetobacter baumannii. The data set is described as follows: Broth microdilution MIC (Example 11). The class given is cell-based. The following applies: A. baumannii MMX 3373; Sensitive. (Broth dilution looks for growth in wells or tubes with falling amounts of substance.)
Data set [5] relates to Enterococcus spp. (E. faecalis, E. faecium). Nature of the data set: Broth microdilution MIC (Example 11). The following applies: enterococci incl. vancomycin-resistant E. faecalis and E. faecium. Type of data set: cell-based.
Data set [6] relates to N. gonorrhoeae. Nature of the data set: Agar dilution MIC (Example 11). Type of data set: cell-based, Neisseria gonorrhoeae. To be noted: QC isolate, ciprofloxacin-resistant and ceftriaxone non-susceptible isolates.
Data set [7] concerns S. aureus ATCC 29213. To be noted: control strain ATCC 29213 S. aureus; per CLSI M100-S24 or provided by Microbion; cited from earlier work.
In data set [8] the test system is Pseudomonas aeruginosa strain PA01. The data set is described as follows: Bacterial killing curves with and without 10% CF patient sputum. The following applies: for bactericidal activity: PA01, 0.1 μg/mL; for effect of CF patient sputum on bactericidal activity: PA01, 10% CF patient sputum.
The nature of data set [9]: Hematology after face-mask inhalation in beagle dogs. The class given is in vivo. The following applies: inhalation Day 0 and 7, animal and Avg lines, samplings not labelled. The procedure: The objective of the study is to determine the maximum tolerated dose (MTD) or maximum feasible dose (MFD) of inhaled bismuth ethanedithiol (BisEDT) after face-mask inhalation exposure (up to 60 min of exposure) in male and female beagle dogs. Animals will be monitored for up to 14 days following the first day of exposure and blood will be collected at predetermined timepoints to analyze the pharmacokinetics of BisEDT. In addition, a coagulation panel will be conducted prior to necropsy. At the conclusion of the study animals will be euthanized and undergo necropsy during which the respiratory tract will be harvested for bioanalytical and histopathological analysis. Results obtained will inform a follow up repeated dose GLP study. This test article is currently being developed as a novel formulation of a broad spectrum antimicrobial/antibiofilm agent, indicated for the treatment of lung infections in patients with cystic fibrosis.
Once adequately conditioned to the restraint device and face-masks, the animals are individually exposed to the test article aerosols. Animals receive a single face-mask inhalation exposure in a ramp study design to test article aerosols for up to 60 min. Animal observations during and post exposure determine the tolerance of inhaled BisEDT aerosols.
Group 1 (vehicle) are exposed to a vehicle atmosphere for 30 minutes. Group 2 (50 μg/kg) are exposed to BisEDT for 30 minutes. Target concentrations and exposure durations for Groups 3-5 are based on the presence of any toxicity via clinical observations or gross necropsy findings. In each of Groups 3-5, if no adverse clinical signs of toxicity are observed, the next groups' exposure will be conducted at a higher target dose. If adverse clinical signs of toxicity are observed, the next groups' exposure will be conducted at a lower target dose. This approach is repeated for all BisEDT doses. The final documented exposure duration is the maximum tolerated dose or the maximum feasible dose.
Blood are collected for pharmacokinetic (PK) analysis prior to exposure, then at 4 hr (±5 min) post exposure, and again on Day 1, Day 2, Day 7 (pre- and 4 hr (±5 min)-post exposure), Day 8, Day 9, Day 10, Day 11, Day 12, Day 13, and Day 14. A total of 0.25 mL is collected at each timepoint. No PK blood is collected from the vehicle control (Group 1) animals; only animals exposed to BisEDT have blood collected for PK analysis. Collected samples are flash frozen without processing for shipment to Medpace for bioanalytical analysis. Additional blood is collected from all animals in all groups for hematology (1 mL) and clinical chemistry (1 mL) at baseline, Day 7 (pre-exposure), and again at euthanasia. Blood (2-2 mL) is collected from all animals at necropsy for coagulation analysis (d-Dimer, fibrinogen, PT, and PTT).
For hematology analyses, whole blood (1 ml) will be collected with vacutainers containing K3EDTA as an anticoagulant.
Hematology samples are analyzed by automated (ADVIA™ 120 Hematology System, Siemens Medical Solutions Diagnostics, Tarrytown, NY) analyses. Disposition will be recorded on the sample processing form.

Data set [10] has as its system P. aeruginosa. The following applies: control strain ATCC 27853 P. aeruginosa; cited from earlier work.
The subject of data set [11] is P. aeruginosa. To be noted: P. aeruginosa isolate 103, CLSI QC range in parenthesis, cited from earlier work.
The subject of data set [12] is Escherichia coli. The following applies: cited from earlier work.
Data set [13] relates to Pseudomonas aeruginosa. To be noted: P. aeruginosa ATCC 27853, QC organism; cited from earlier work.
Data set [14] deals with P. aeruginosa. The data set is described as follows: Broth microdilution MIC (Example 10).
Data set [15] relates to Pseudomonas aeruginosa. The data set is described as follows: Broth microdilution MIC (Example 12).
The mark [16] stands for this setting: dogs Group 2 (target 50 μg/kg; lung deposited 55-56 ug/kg).
The mark [17] stands for this setting: E. coli ATCC 25922, QC organism.

Structures are written as SMILES. Values after ≈ are worked out from the molar mass of the structure shown. Values joined by “and” are separate entries in the source; they are usually repeats but may differ in a detail not shown here. Equal values may be shown once. Read-outs that look alike come from different tables or passages of the source.

Results on three compounds are retold here after patent US12186283B2, “Bismuth-thiol compositions and methods of use” (Microbion Corporation, priority 2018, dated 2025).

One may read the MIC as the least concentration at which growth counts as inhibited. On to `CC(S)C(C)S.[Bi]` (stereo not drawn) [BisBDT, bismuth-2,3-butanedithiol], for which the MIC in data set [1] was 4 µg/mL; in data set [3], 1 µg/mL; in [4], 0.5 µg/mL. For the same compound, in data set [2], the “reduction in biofilm cell viability” value was “only very modest reductions in biofilm cell viability”. Besides, the figures for the “MIC values (range across isolates)” value in data set [5] and in data set [6] were 0.25 to 1 µg/mL and 0.06 to 0.25 µg/mL, respectively. Besides, in data set [7], the “Expected MIC: goal” value was 0.25 µg/mL. Moreover, the bactericidal activity entry in data set [8] was “not bactericidal”. In addition, in data set [8] (PA01, 4 μg/mL, 10% CF sputum, 3-6 hours), the “more surviving in cultures with sputum” value is 0.5-0.8 log CFU/mL. Besides, in data set [8] (PA01, 4 μg/mL, absence of sputum, 6 hour assay), the “killing over the assay” value is “about 1 log”. In [8] (PA01, 20 μg/mL, with and without sputum), the “time to sterilization below the limit of detection” value was not above 5 h. For the same compound, the “effect of CF patient sputum on bactericidal activity” value in [8] is “partially inhibited”.
Turning to `C1C[S][Bi]([S]CC[S][Bi]2[S]CC[S]2)[S]1` [BisEDT, bismuth-1,2-ethanedithiol], in data set [9] (setting [16]), the HGB was 15.6 g/dL and 15.0 g/dL and 14.2 g/dL and 16.4 g/dL and 14.3 g/dL; the LUC is 0.01 ^3/uL and 0.02 ^3/uL; the MCH is 22.8 pg and 23.2 pg and 22.7 pg and 22.3 pg and 21.9 pg; the MCHC is 34.1 g/dL and 34.9 g/dL and 33.4 g/dL and 34.4 g/dL and 33.2 g/dL. Further, the MONO in [9] (setting [16]) was 0.63 ^3/uL and 0.67 ^3/uL and 0.53 ^3/uL and 0.50 ^3/uL and 0.51 ^3/uL. For the same compound, the LUC in data set [9] (dogs Group 4 (lung deposited 176-197 ug/kg)) was 0.01 ^3/uL and 0.02 ^3/uL. In [10], the “Expected MIC: acceptable range” value is 0.5 to 4 µg/mL and the “Expected MIC: goal” value was 1 to 2 µg/mL. Further, the “Expected MIC: goal” value in [7] is 0.25 to 0.5 µg/mL. In data set [11] (Table 24), the “MIC, CLSI QC range” value was “(0.5-4)^2 μg/mL”. Moreover, the “MIC, CLSI QC range” value in [11] (Table 26) is listed as “(0.5-4) μg/mL”. Moreover, in data set [12] (setting [17]), the “MIC, QC range” value is recorded as “(0.5-4)^1 μg/mL”. The “MIC, QC range” value in [13] is given as “(0.5-4) μg/mL”. In data set [8], the bactericidal activity entry is “not bactericidal” and the “effect of CF patient sputum on bactericidal activity” value is “partially inhibited”.
As for `C[C@@H](O)[C@H]1C(=O)N2C(C(=O)O)=C(S[C@@H]3CN[C@H](C(=O)N(C)C)C3)[C@H](C)[C@H]12` [MEM], the “MIC, CLSI QC range” value in data set [11] (Table 24) and in data set [11] (Table 26) was “(0.12-1) μg/mL” each time. Further, the “MIC, QC range” value in data set [12] (setting [17]) is recorded as “(0.008-0.06) μg/mL”; in data set [12] (E. coli ATCC 35218, QC organism), “(0.008-0.06) μg/mL”; in data set [13], “(0.12-1) μg/mL”. Also, the MIC in data set [14] (P. aeruginosa isolate 103 (ATCC 25922), QC strain, initial MIC testing) was found to be 1 µg/mL (≈ 2.61 µM); in [14] (P. aeruginosa isolate 103 (ATCC 25922), during FIC testing, each agent tested alone for QC, one replicate) it was 1 µg/mL; in [14] (P. aeruginosa isolate 1497 (TOB-R, AMK-R, CIP-I, AZT-R, COL-R), initial MIC testing), 0.06 µg/mL (≈ 0.156 µM); in [14] (P. aeruginosa isolate 1530 (TOB-R, AMK-R, CIP-R), initial MIC testing), 0.5 µg/mL (≈ 1.3 µM); in data set [14] (P. aeruginosa isolate 1553 (TOB-R, AMK-R, CIP-R), initial MIC testing) it was 0.5 µg/mL (≈ 1.3 µM); in [14] (P. aeruginosa isolate 6322 (MEM-R, TOB-R, AMK-R, CIP-R, AZT-R), initial MIC testing), 16 µg/mL (≈ 41.7 µM). Besides, the MIC in data set [14] (P. aeruginosa isolate 6977 (MEM-I, TOB-R, CIP-R, AZT-I), initial MIC testing) came to 4 µg/mL (≈ 10.4 µM); in data set [14] (P. aeruginosa isolate 7745 (MEM-R, CIP-R, AZT-R), initial MIC testing), 16 µg/mL (≈ 41.7 µM); in data set [14] (P. aeruginosa isolate 7754 (MEM-R, TOB-R, CIP-R, AZT-I), initial MIC testing) it was 32 µg/mL (≈ 83.4 µM); in data set [14] (P. aeruginosa isolate 7762 (MEM-I, CIP-I), initial MIC testing), 4 µg/mL (≈ 10.4 µM); in data set [14] (P. aeruginosa isolate 7871 (MEM-R, AZT-I), initial MIC testing), 8 µg/mL (≈ 20.9 µM); in data set [14] (P. aeruginosa isolate 7874, initial MIC testing) it was 1 µg/mL (≈ 2.61 µM). Further, the MIC is 32 µg/mL (≈ 83.4 µM) in data set [14] (P. aeruginosa isolate 7886 (MEM-R, CIP-R, AZT-R), initial MIC testing); 32 µg/mL (≈ 83.4 µM) in [14] (P. aeruginosa isolate 8797 (MEM-R, TOB-R, AMK-R, CIP-R, AZT-R, COL-R), initial MIC testing); 64 µg/mL (≈ 167 µM) in data set [14] (P. aeruginosa isolate 8798 (MEM-R, TOB-R, AMK-R, CIP-R, AZT-R, COL-R), initial MIC testing); 0.5 µg/mL (≈ 1.3 µM) in data set [14] (P. aeruginosa isolate 9108 (CIP-R, AZT-I), initial MIC testing); 0.25 µg/mL (≈ 0.652 µM) in [15] (P. aeruginosa ATCC 27853, QC organism); more than 8 µg/mL in data set [15] (Pseudomonas aeruginosa CDC 230, VIM/OXA). The minimal inhibitory concentration (MIC) is more than 8 µg/mL in data set [15] (Pseudomonas aeruginosa CDC 231, KPC/OXA); more than 8 µg/mL in data set [15] (Pseudomonas aeruginosa CDC 241, IMP/OXA); more than 8 µg/mL in data set [15] (Pseudomonas aeruginosa CDC 246, NDM/OXA); more than 8 µg/mL in [15] (Pseudomonas aeruginosa CDC 250, NDM/OXA); more than 8 µg/mL in [15] (Pseudomonas aeruginosa CDC 356, KPC); more than 8 µg/mL in data set [15] (Pseudomonas aeruginosa CDC 439, IMP). The MIC is more than 8 µg/mL in data set [15] (Pseudomonas aeruginosa CDC 444, VIM); more than 8 µg/mL in [15] (Pseudomonas aeruginosa CDC 457, VIM); more than 8 µg/mL in data set [15] (Pseudomonas aeruginosa CDC 516, KPC/AmpC); more than 8 µg/mL in data set [15] (Pseudomonas aeruginosa CDC 518, KPC/AmpC).
